Experimental data as given in patent publication US20050171161A1, “Method of treatment or prevention of obesity” (priority 2002, published 2005).
Counter-ions that a name gives are not always drawn. Like-named read-outs stand apart in the source and are kept apart here.

Key:
[1] = target: T1, recombinant human CB1 receptor (Homo sapiens, UniProt P21554); assay: Cannabinoid Receptor-1 (CB1) Binding Assay
T1 construct: expressed in transfected cells; host or cells: CHO cells (membranes)
Procedure: Cannabinoid Receptor-1 (CB1) Binding Assay.
Binding buffer contains 50 mM Tris-HCl, pH7.4, 2.5 mM EDTA, 5 mM MgCl2, 0.5 mg/ml fatty acid free bovine serum albumin and protease inhibitors (Cat#P8340, from Sigma). To initiate the binding reaction, 5 μl of radioligand solution is added, the mixture is incubated with gentle shaking on a shaker for 1.5 hours at 30° C. The binding is terminated by using 96-well harvester and filtering through GF/C filter presoaked in 0.05% polyethylenimine. The bound radiolabel is quantitated using scintillation counter.

[2] = target: T2, recombinant human CB2 receptor (Homo sapiens, UniProt P34972); assay: CB2 Receptor Binding Assay
T2 construct: expressed in transfected cells; host or cells: CHO cells (membranes)
T2 sequence (P34972 whole entry): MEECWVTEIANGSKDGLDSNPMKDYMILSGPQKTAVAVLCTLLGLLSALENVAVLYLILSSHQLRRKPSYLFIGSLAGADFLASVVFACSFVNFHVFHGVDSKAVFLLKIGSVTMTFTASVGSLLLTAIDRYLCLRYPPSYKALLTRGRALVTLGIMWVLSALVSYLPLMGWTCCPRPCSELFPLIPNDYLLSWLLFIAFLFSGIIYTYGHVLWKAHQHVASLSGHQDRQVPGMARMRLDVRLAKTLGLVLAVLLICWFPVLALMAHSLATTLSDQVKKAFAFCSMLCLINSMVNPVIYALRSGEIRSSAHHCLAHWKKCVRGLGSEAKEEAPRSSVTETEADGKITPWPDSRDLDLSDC
Procedure: CB2 Receptor Binding Assay
The binding assay for CB2 receptor is conducted similarly, with recombinant human CB2 receptor expressed in CHO cells.

Potassium channel (Ikr) = Potassium channel (Ikr) (Homo sapiens, UniProt Q12809); assay: Potassium channel (Ikr) binding
Sequence of Potassium channel (Ikr) (Q12809 whole entry): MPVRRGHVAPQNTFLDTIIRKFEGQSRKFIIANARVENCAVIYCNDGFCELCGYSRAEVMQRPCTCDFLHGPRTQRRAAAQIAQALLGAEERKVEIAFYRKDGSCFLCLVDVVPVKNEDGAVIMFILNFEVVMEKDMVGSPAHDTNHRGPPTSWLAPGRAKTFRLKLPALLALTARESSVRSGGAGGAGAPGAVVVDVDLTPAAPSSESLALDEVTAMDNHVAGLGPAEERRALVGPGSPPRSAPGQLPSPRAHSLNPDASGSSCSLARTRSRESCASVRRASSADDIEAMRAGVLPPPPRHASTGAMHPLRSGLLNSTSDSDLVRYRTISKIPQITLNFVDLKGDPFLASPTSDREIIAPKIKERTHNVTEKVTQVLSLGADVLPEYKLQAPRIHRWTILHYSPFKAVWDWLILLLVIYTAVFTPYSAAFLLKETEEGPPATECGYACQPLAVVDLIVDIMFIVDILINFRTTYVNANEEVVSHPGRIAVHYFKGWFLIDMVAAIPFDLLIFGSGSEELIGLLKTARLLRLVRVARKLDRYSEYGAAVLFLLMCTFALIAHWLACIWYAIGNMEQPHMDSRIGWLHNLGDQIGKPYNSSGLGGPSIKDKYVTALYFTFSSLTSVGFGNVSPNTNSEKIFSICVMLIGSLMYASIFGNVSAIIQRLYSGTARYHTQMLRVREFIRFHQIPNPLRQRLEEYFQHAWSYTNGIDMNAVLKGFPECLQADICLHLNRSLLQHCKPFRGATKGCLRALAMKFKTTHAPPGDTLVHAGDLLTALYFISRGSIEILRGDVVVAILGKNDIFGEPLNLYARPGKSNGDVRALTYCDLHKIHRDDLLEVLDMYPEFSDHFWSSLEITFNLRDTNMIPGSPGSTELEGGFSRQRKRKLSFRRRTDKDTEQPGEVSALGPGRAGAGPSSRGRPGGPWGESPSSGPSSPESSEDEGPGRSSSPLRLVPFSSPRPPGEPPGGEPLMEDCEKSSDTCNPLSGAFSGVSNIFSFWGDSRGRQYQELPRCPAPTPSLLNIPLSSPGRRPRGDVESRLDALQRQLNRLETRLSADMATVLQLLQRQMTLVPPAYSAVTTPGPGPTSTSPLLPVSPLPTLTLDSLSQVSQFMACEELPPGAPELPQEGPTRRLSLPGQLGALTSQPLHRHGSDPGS
Source text: (§1) Ion channel assays have also been reported in the literature. The following are representative.

Calcium channel = Calcium channel binding
Source text: as §1

Sodium channel site 2 = Sodium channel site 2 binding
Source text: as §1

11β-HSD1 enzyme (hHSD1) = target: T3, 11β-HSD1 enzyme (hHSD1) (Homo sapiens, UniProt P28845); assay: 11β-HSD1 inhibition, Scintillation Proximity Assay; assay type: biochemical; settings: SPA, tritiated cortisone, NADPH
T3 construct: expressed in transfected cells; host or cells: CHO transfectants (microsomes)
T3 sequence (P28845 whole entry): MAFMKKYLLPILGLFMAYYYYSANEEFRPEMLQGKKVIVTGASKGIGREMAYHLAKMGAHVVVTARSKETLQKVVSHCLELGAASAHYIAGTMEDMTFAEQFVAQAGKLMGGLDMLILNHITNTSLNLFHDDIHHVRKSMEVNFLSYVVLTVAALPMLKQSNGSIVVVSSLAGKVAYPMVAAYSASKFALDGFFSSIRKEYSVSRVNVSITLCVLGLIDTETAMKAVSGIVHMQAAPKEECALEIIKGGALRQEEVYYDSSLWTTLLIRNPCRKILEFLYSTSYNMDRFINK
Procedure: 11β-HSD1 Inhibition Constants
(§2) In vitro enzymatic activity is assessed for test compounds via a Scintillation Proximity Assay (SPA). Tritiated-cortisone substrate, NADPH cofactor and titrated compound are incubated with 11β-HSD1 enzyme at 37° C. to allow conversion to cortisol to progress. Following this incubation, protein A coated SPA beads, pre-blended with anti-cortisol monoclonal antibody and a non-specific 11β-HSD inhibitor, are added to each well. The mixture is shaken at 15° C. and then read on a liquid scintillation counter suitable for 96 well plates.
(§3) Percent inhibition is calculated relative to a non-inhibited control well, and IC50 curves are generated.
(§4) This assay is similarly applied to 11β-HSD2. Tritiated cortisol and NAD are used as the substrate and cofactor, respectively. 40 μL of substrate (25 nM ^3H-Cortisone+1.25 mM NADPH in 50 mM HEPES Buffer, pH 7.4) are added to designated wells on a 96 well plate. Solid compound is dissolved in DMSO at 10 mM followed by a subsequent 50 fold dilution in DMSO. The diluted material is then titrated 4 fold, seven times. 1 μL of each titrated compound is then added in duplicate to the substrate. To start the reaction, 10 μL of 11β-HSD1 microsome from CHO transfectants is added to each well at the appropriate concentration to yield approximately 10% conversion of the starting material. For ultimate calculation of percent inhibition, a series of wells is added that represent the assay minimum and maximum: one set that contains substrate without compound or enzyme (background), and another set that contains substrate and enzyme without any compound (maximum signal). The plates are spun briefly at a low speed in a centrifuge to pool the reagents, sealed with an adhesive strip, mixed gently, and incubated at 37° C. for 2 hours. After incubation, 45 μL of SPA beads, pre-suspended with anti-cortisol monoclonal antibody and non-specific 11β-HSD inhibitor, are added to each well. The plates are resealed and shaken gently for greater than 1.5 hours at 15° C. Data is collected on a plate based liquid scintillation counter such as a Topcount. To control for inhibition of anti-cortisol antibody/cortisol binding, substrate spiked with 1.25 nM [3]H cortisol is added to designated single wells. 1 μL of 200 μM compound is added to each of these wells, along with 10 μL of buffer instead of enzyme. Any calculated inhibition is due to compound interfering with the cortisol binding to the antibody on the SPA beads.

11β-HSD2 (hHSD2) = target: T4, 11β-HSD2 (hHSD2) (Homo sapiens, UniProt P80365); assay: 11β-HSD2 inhibition, Scintillation Proximity Assay; assay type: biochemical; settings: SPA, tritiated cortisol, NAD
T4 sequence (P80365 1-405): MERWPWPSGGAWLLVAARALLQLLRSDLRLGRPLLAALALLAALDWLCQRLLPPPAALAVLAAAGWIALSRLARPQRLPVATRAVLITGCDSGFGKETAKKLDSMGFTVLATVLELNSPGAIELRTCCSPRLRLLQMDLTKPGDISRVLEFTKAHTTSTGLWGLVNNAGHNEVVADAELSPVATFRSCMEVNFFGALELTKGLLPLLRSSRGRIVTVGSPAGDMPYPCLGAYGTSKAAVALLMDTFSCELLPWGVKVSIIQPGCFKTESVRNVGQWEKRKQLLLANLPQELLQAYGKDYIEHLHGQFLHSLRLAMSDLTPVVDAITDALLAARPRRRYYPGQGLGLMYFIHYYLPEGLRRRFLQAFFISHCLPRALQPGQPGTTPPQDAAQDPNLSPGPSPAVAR
Procedure: as §2, §3, §4

[3] = CHO cell membranes, [3H]CP-55940 0.6 nM, read-out: hCB1 IC50

T1 sequence (P21554 whole entry): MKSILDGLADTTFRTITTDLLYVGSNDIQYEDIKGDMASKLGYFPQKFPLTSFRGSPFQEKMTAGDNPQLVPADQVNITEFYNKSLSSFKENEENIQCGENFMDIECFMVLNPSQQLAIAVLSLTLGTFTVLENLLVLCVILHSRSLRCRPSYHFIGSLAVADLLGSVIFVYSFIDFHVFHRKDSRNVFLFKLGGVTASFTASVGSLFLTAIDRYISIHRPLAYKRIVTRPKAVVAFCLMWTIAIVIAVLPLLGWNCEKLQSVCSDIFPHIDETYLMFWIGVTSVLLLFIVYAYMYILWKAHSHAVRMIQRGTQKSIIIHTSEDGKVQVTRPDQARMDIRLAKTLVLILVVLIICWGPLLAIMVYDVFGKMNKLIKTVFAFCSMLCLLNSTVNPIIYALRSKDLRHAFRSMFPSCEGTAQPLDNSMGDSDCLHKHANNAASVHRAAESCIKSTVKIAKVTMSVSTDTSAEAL

Row | Structure (SMILES) | IC50 ([2]; CHO cells, read-out: hCB2 IC50) [nM] | IC50 (11β-HSD1 enzyme (hHSD1)) [nM] | IC50 (11β-HSD2 (hHSD2)) [nM] | also measured
1 | Cn1c(C(=O)NN2CCCCC2)nc(-c2ccc(Cl)cc2Cl)c1-c1ccc(Cl)cc1 [Compound 2, N-(Piperidin-1-yl)-4-(2,4-dichlorophenyl)-5-(4-chlorophenyl)-1-methylimidazole-2-carboxamide] | 100 to 1000 |  |  | IC50 [1, 3]: < 10 nM; Ion Channel Values K (Potassium channel (Ikr)): 1.3 µM; Ion Channel Values Ca (Calcium channel): 1200 nM; Ion Channel Values Na (Sodium channel site 2): 6 µM
2 | Cc1ccc(-c2nc(C(=O)NN3CCCCC3)n(C)c2-c2ccc(C)cc2)cc1 [Compound 3, N-(Piperidin-1-yl)-4,5-di-(4-methylphenyl)-1-methylimidazole-2-carboxamide] | > 1000 |  |  | 
3 | Cc1ccc(-c2nc(C(=O)NC3CCCCC3)n(C)c2-c2ccc(C)cc2)cc1 [Compound 4, N-Cyclohexyl-4,5-di-(4-methylphenyl)-1-methylimidazole-2-carboxamide] | > 1000 |  |  | IC50 [1]: 100 to 1000 nM
4 | Cn1c(C(=O)NC2CCCCC2)nc(-c2ccc(Cl)cc2Cl)c1-c1ccc(Cl)cc1 [Compound 5, N-(Cyclohexyl)-4-(2,4-dichlorophenyl)-5-(4-chlorophenyl)-1-methylimidazole-2-carboxamide] |  |  |  | IC50 [1]: < 10 nM; IC50 [2]: 100 to 1000 nM; Ion Channel Values K (Potassium channel (Ikr)): 5.6 µM; Ion Channel Values Ca (Calcium channel): 4600 nM; Ion Channel Values Na (Sodium channel site 2): 4 µM
5 | Cn1c(C(=O)Nc2ccccc2)nc(-c2ccc(Cl)cc2Cl)c1-c1ccc(Cl)cc1 [Compound 6, N-(Phenyl)-4-(2,4-dichlorophenyl)-5-(4-chlorophenyl)-1-methylimidazole-2-carboxamide] | 100 to 1000 |  |  | IC50 [1, 3]: 10 to 100 nM
6 | CC12CC3(C)CC(C)(C1)CC(Cc1nnc4n1CCCCC4)(C2)C3 [Compound 7, 3-[(3,5,7-trimethyl-1-adamantyl)methyl]-6,7,8,9-tetrahydro-5H-[1,2,4]triazolo[4,3-a]azepine Trifluoroacetate Salt] |  | 10 to 100 | > 1000 | 
7 | CCSc1nnc(C23CC4CC(CC(C4)C2)C3)n1CC [Compound 8, 3-(1-adamantyl)-4-ethyl-5-(ethylthio)-4H-1,2,4-triazole] |  | 10 to 100 | > 1000 | 
8 | COc1cc(-c2nnc(C34CC5CC(CC(C5)C3)C4)n2C)cc(OC)c1OC [Compound 9, 3-(1-adamantyl)-5-(3,4,5-trimethoxyphenyl)-4-methyl-4H-1,2,4-triazole] |  | < 10 | < 10 | 
9 | C1CCCCc2nnc(C34CC5CC(CC(C5)C3)C4)n2CCCC1 [Compound 10, 3-adamantanyl-4,5,6,7,8,9,10,11,12,3a-decahydro-1,2,4-triazolo[4,3-a][11]annulene] |  | 100 to 1000 | > 1000 | 
